Results published in patent US20110172274A1, “FLUORO-SUBSTITUTED 3,4-DIARYL-4,5-DIHYDRO-1H-PYRAZOLE-1-CARBOXAMIDINE DERIVATIVES HAVING CB1-ANTAGONISTIC ACTIVITY” (priority 2008, published 2011).

How the values were obtained:
[1] = target: T1, human cannabinoid CB1 receptors (Homo sapiens, UniProt P21554); assay: In vitro affinity for cannabinoid-CB1 receptors, [3H]CP-55,940 radioligand binding, CHO cell membranes; conditions: for Ki: CHO membranes, [3H]CP-55,940, means of at least two independent experiments, read-out: receptor binding h-CB1 receptor Ki; for factor of higher affinity for human CB1 receptors than non-fluorinated analog compound 24: (S)-(-)-enantiomers versus compound 24
T1 construct: expressed in transfected cells; host or cells: Chinese hamster ovary (CHO) cells, membrane preparations
Experimental: In vitro affinity for cannabinoid-CB1 receptors was determined using membrane preparations of Chinese hamster ovary (CHO) cells wherein human cannabinoid CB1 receptors were stably transfected in conjunction with [^3H]CP-55,940 as radioligand. After incubation of a freshly prepared cell membrane preparation with the [^3H]-ligand, with or without addition of compounds of the invention, separation of bound and free ligand was performed by filtration over glassfiber filters. Radioactivity on the filter was measured by liquid scintillation counting. The binding data were either obtained by CEREP (128, rue Danton, 92500 Rueil-Malmaison, France) or at Solvay Pharmaceuticals B.V. (C. J. van Houtenlaan 36, 1381 CP Weesp, The Netherlands).

rat CB1 receptor = target: T2, rat CB1 receptor (Rattus norvegicus, UniProt P20272); assay: In vivo cannabinoid-CB1 receptor antagonism, CP-55,940-induced hypotension test in rat; conditions: for ED50: rat, p.o., anaesthetized male rats, CP-55,940 0.1 mg/kg i.v., read-out: blood pressure rat CB1 receptor ED50 (mg/kg, p.o.)
T2 construct: Male normotensive rats (225-300 g; Harlan, Horst, The Netherlands) were anaesthetized; from tissue; host or cells: whole animal: male normotensive rats (Harlan)
Experimental: In vivo cannabinoid-CB1 receptor antagonism was assessed with the CP-55,940-induced hypotension test in rat. Male normotensive rats (225-300 g; Harlan, Horst, The Netherlands) were anaesthetized with pentobarbital (80 mg/kg ip). Blood pressure was measured, via a cannula inserted into the left carotid artery, by means of a Spectramed DTX-plus pressure transducer (Spectramed B.V., Bilthoven, The Netherlands). After amplification by a Nihon Kohden Carrier Amplifier (Type AP-621G; Nihon Kohden B.V., Amsterdam, The Netherlands), the blood pressure signal was registered on a personal computer (Compaq Deskpro 386s), by means of a Po-Ne-Mah data-acquisition program (Po-Ne-Mah Inc., Storrs, USA). Heart rate was derived from the pulsatile pressure signal. All compounds were administered orally as a microsuspension in 1% methylcellulose 30 minutes before induction of the anesthesia, 60 minutes prior to administration of the CB1 receptor agonist CP-55,940. The injection volume was 10 ml/kg. After haemodynamic stabilization the CB1 receptor agonist CP-55,940 (0.1 mg/kg i.v.) was administered and the hypotensive effect established (Wagner 2001).

[2] = target: T3, human cannabinoid CB2 receptors (Homo sapiens, UniProt P34972); assay: In vitro affinity for cannabinoid-CB2 receptors, [3H]CP-55,940 radioligand binding, CHO cell membranes; conditions: means of at least two independent experiments, read-out: receptor binding h-CB2 receptor Ki
T3 construct: expressed in transfected cells; host or cells: CHO cells, membrane preparations
Experimental: In vitro affinity for cannabinoid-CB2 receptors was determined using membrane preparations of CHO cells wherein human cannabinoid CB2 receptors were stably transfected in conjunction with [^3H]CP-55,940 as radioligand. After incubation of a freshly prepared cell membrane preparation with the [^3H]-ligand, with or without addition of compounds of the invention, separation of bound and free ligand was performed by filtration over glassfiber filters. Radioactivity on the filter was measured by liquid scintillation counting.

T2 sequence (P20272 whole entry): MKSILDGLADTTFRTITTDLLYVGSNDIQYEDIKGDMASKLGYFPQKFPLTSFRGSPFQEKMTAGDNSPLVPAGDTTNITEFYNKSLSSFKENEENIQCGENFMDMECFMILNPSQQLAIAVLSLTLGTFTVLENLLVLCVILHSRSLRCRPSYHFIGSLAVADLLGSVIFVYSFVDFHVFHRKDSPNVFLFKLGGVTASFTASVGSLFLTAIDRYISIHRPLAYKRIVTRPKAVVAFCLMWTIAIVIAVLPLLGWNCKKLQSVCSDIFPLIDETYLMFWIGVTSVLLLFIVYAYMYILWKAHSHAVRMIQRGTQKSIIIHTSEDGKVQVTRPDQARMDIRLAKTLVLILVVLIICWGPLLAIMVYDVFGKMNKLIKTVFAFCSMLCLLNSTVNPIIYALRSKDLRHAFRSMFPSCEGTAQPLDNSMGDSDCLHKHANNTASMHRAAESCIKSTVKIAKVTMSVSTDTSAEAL
T1 sequence (P21554 whole entry): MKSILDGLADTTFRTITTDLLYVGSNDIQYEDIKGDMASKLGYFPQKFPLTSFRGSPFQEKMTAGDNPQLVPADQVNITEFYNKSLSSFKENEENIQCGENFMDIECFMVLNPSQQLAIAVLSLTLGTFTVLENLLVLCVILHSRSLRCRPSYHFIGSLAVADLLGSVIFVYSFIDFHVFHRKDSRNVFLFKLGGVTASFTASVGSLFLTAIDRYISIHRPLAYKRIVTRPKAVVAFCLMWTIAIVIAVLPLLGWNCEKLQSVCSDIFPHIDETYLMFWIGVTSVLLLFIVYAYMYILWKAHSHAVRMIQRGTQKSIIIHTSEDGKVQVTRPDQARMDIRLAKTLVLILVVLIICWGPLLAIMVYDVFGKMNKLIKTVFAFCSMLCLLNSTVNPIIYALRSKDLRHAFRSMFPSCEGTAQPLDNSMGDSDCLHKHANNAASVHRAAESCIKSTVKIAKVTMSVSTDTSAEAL
T3 sequence (P34972 whole entry): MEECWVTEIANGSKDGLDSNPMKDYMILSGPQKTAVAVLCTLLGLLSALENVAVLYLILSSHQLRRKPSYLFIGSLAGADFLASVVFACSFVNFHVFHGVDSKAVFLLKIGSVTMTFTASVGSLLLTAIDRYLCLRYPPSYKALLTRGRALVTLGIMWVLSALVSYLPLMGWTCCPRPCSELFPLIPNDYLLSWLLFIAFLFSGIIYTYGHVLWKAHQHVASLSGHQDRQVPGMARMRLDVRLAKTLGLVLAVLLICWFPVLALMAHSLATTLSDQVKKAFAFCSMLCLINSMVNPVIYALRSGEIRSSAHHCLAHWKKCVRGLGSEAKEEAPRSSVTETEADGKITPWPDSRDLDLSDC

| SMILES | Ki [1] [µM] | other results |
| --- | --- | --- |
| CN=C(NS(=O)(=O)N1CCC(F)(F)CC1)N1CC(c2ccccc2)C(c2ccc(Cl)cc2)=N1 (racemic) [compound 1, N-[(4,4-difluoropiperidin-1-yl)sulfonyl]-N′-methyl-3-(4-chlorophenyl)-4-phenyl-4,5-dihydro-(1H)-pyrazole-1-carboxamidine] | 0.01 | – |
| CN/C(=N\S(=O)(=O)N1CCC(C(F)(F)F)CC1)N1CC(c2ccccc2)C(c2ccc(Cl)cc2)=N1 (racemic) [compound 2, N-[(4-(Trifluoromethyl)piperidin-1-yl)sulfonyl]-N′-methyl-3-(4-chlorophenyl)-4-phenyl-4,5-dihydro-(1H)-pyrazole-1-carboxamidine] | 0.003 | – |
| CNC(=NS(=O)(=O)N1CCC(F)CC1)N1CC(c2ccccc2)C(c2ccc(Cl)cc2)=N1 (racemic) [compound 3, N-[(4-Fluoropiperidin-1-yl)sulfonyl]-N′-methyl-3-(4-chlorophenyl)-4-phenyl-4,5-dihydro-(1H)-pyrazole-1-carboxamidine] | 0.005 | – |
| CN=C(NS(=O)(=O)N1CCCC(F)C1)N1CC(c2ccccc2)C(c2ccc(Cl)cc2)=N1 (racemic) [compound 4, N-[(3-Fluoropiperidin-1-yl)sulfonyl]-N′-methyl-3-(4-chlorophenyl)-4-phenyl-4,5-dihydro-(1H)-pyrazole-1-carboxamidine] | 0.016 | melting point: 170 to 171 °C |
| CN=C(NS(=O)(=O)N1CCCC(F)(F)C1)N1CC(c2ccccc2)C(c2ccc(Cl)cc2)=N1 (racemic) [compound 5, N-[(3,3-Difluoropiperidin-1-yl)sulfonyl]-N′-methyl-3-(4-chlorophenyl)-4-phenyl-4,5-dihydro-(1H)-pyrazole-1-carboxamidine] | 0.01 | melting point: 166 to 167 °C |
| CCN=C(NS(=O)(=O)N1CCC(F)(F)CC1)N1CC(c2ccccc2)C(c2ccc(Cl)cc2)=N1 (racemic) [compound 6, N-[(4,4-Difluoropiperidin-1-yl)sulfonyl]-N′-ethyl-3-(4-chlorophenyl)-4-phenyl-4,5-dihydro-(1H)-pyrazole-1-carboxamidine] | 0.01 | – |
| CN(C)/C(=N/S(=O)(=O)N1CCC(F)(F)CC1)N1CC(c2ccccc2)C(c2ccc(Cl)cc2)=N1 (centres unmarked) [compound 7, N^2-[(4,4-Difluoropiperidin-1-yl)sulfonyl]-N^1-dimethyl-3-(4-chlorophenyl)-4-phenyl-4,5-dihydro-(1H)-pyrazole-1-carboxamidine] | 0.025 | – |

Second part, led by results:

| Ki [1] [µM] | SMILES | other results |
| --- | --- | --- |
| 0.005 | CN=C(NS(=O)(=O)N1CCC(F)(F)CC1)N1C[C@H](c2ccccc2)C(c2ccc(Cl)cc2)=N1 [compound 8, (−)-(4S)—N-[(4,4-difluoropiperidin-1-yl)sulfonyl]-N′-methyl-3-(4-chlorophenyl)-4-phenyl-4,5-dihydro-(1H)-pyrazole-1-carboxamidine] | factor of higher affinity for human CB1 receptors than non-fluorinated analog compound 24 [1]: 12 fold |
| 0.003 | CN=C(NS(=O)(=O)N1CCC(C(F)(F)F)CC1)N1C[C@H](c2ccccc2)C(c2ccc(Cl)cc2)=N1 [compound 9, (−)-(4S)—N-[(4-(Trifluoromethyl)piperidin-1-yl)sulfonyl]-N′-methyl-3-(4-chlorophenyl)-4-phenyl-4,5-dihydro-(1H)-pyrazole-1-carboxamidine] | factor of higher affinity for human CB1 receptors than non-fluorinated analog compound 24 [1]: 19 fold; in vivo activity after oral administration compared with compound 24 (rat CB1 receptor; oral administration, CP-55,940-induced hypotension test): more active; ED50 (rat CB1 receptor): 2 mg/kg; Ki [2]: 0.316 µM |
| 0.125 | CN=C(NS(=O)(=O)N1CCC(C(F)(F)F)CC1)N1C[C@@H](c2ccccc2)C(c2ccc(Cl)cc2)=N1 [compound 10, (+)-(4R)—N-[(4-(Trifluoromethyl)piperidin-1-yl)sulfonyl]-N′-methyl-3-(4-chlorophenyl)-4-phenyl-4,5-dihydro-(1H)-pyrazole-1-carboxamidine] | affinity for human CB1 receptors, fold less than that of compound 9 ([1]; distomer versus eutomer compound 9): about 40 fold; in vivo activity in the hypotension test (rat CB1 receptor; given at 30 mg/kg): devoid of in vivo activity; ED50 (rat CB1 receptor): > 30 mg/kg; Ki [2]: > 1 µM |
| 0.152 | CN/C(=N/S(=O)(=O)N1CCCCC1)N1CC(c2ccccc2)C(c2ccc(Cl)cc2)=N1 (centres unmarked) [compound 21, reference compound] | – |
| 0.058 | CN/C(=N/S(=O)(=O)N1CCCCC1)N1C[C@H](c2ccccc2)C(c2ccc(Cl)cc2)=N1 [compound 24, reference compound] | ED50 (rat CB1 receptor): 8 mg/kg; Ki [2]: 3.5 µM |
| 0.763 | CNC(=NS(=O)(=O)N1CCCCC1)N1C[C@@H](c2ccccc2)C(c2ccc(Cl)cc2)=N1 [compound 25, reference compound] | – |
